# From patent US10801065B2, “Methods of determining levels of exposure to radiation and uses thereof” (priority 2015, dated 2020)
# Where “and” joins values, the source holds several entries; their conditions need not be identical. Equal entries are not always repeated.
# Experiments:
# Type in all cases: in vivo
# lethally-irradiated mice = experiment: Kaplan-Meier survival of mice given amifostine before lethal total body irradiation
# Procedure: C57BL/6J male mice (10 weeks old) were obtained from Jackson Labs (Bar Harbor, Me.) and the mice were used in the experiments at an age of 12-13 weeks. Animals were exposed to total body irradiation in an irradiation pie cage (Braintree Scientific, Braintree, Mass.) at various doses. Irradiation was performed using a 137Cs source (Gamma Cell® 40 Exactor, Best Theratronics, Ottawa, Ontario).
# Saline or amifostine was given to mice intraperitoneally at 250 mg/kg body weight 24 hours prior to 0 Gy- or 8 Gy-total body irradiation in a first set of experiments. In a second set of experiments, mice were left untreated or mice were administered saline or 200 mg/kg amifostine 45 minutes prior to 0 Gy- or 8.5 Gy-total body irradiation. Serum was collected from all mice at 24 hours after irradiation or a time point in the non-irradiated mice that would correspond to 24 hours after irradiation in the treated mice.
# Validation with real-time qPCR: One-way ANOVA was used to confirm global significance. Dunnett's post-hoc testing procedure was used to compare miRNA levels in the irradiated+saline-group against three other experimental groups. Univariate comparisons were performed using the Student's t-test or the Student's t-test for paired samples. Pearson's correlation coefficient was used for correlation testing. Survival analysis was performed using the log-rank (Mantel-Cox) test.
# [1] = system: serum miRNAs miR-187-3p, miR-194-5p, miR-27a-3p, miR-30a-3p, miR-30c-5p; experiment: Serum miRNA levels (qPCR) in mice given amifostine before total body irradiation; settings: amifostine 250 mg/kg 24 hours prior to 0 Gy or 8 Gy-total body irradiation; sera 24 hours post-irradiation
# Procedure: Peripheral blood was collected by retro-orbital bleeding after anesthesia. Up to 200 μL of blood was collected in DNAse/RNAse-free Eppendorf tubes and incubated at room temperature for 2 hours to allow clotting. Blood samples were then centrifuged in an Eppendorf 5415C centrifuge at 14000 RPM (15996 g) for 5 minutes at room temperature.
# Total RNA was isolated from serum samples by using the miRCURY™ RNA Isolation Kit—Biofluids from 50 μL mouse serum as per the manufacturer's manual. […] Total RNA was eluted in 50 μL of RNAse-free H2O and stored at −80° C. Per the manufacturer's recommendations, input volumes for serum RNA were optimized for the cDNA synthesis reaction. cDNA was synthesized in 10 μL reactions using the Universal cDNA Synthesis Kit II and was diluted 50-fold in RNAse/DNAse-free H2O for use in quantitative PCR. The reagents for RNA extraction and cDNA synthesis were obtained from Exiqon (Vedbaek, Denmark).
# Diluted cDNA was subjected to quantitative PCR analysis in Pick-N-Mix plates designed in a 96-well format. […] All reagents used for quantitative PCR were obtained from Exiqon (Vedbaek, Denmark). […]
# [2] = system: HuCD34+ humanized NSG mice, 4 Gy to 4.5 Gy total body irradiation; experiment: Bone marrow cellularity, human CD45 positive cells and CFU-Cs in irradiated humanized mice given amifostine; settings: amifostine 200 mg/kg prior to 4.0 Gy or 4.5 Gy total body irradiation vs saline
# Procedure: Bone marrow was harvested as per protocols described in Parmar et al. (Stem Cells 28:1186-1195, 2010). Briefly, animals were dissected to isolate the femurs and tibia from the mouse hind limb. The extracted bones were flushed with a 23-gauge needle using Hank's Balanced Salt Solution (HBSS, Life Technologies, Grand Island, N.Y.) supplemented with 2% fetal bovine serum (FBS) and 1% 10 mM HEPES (Life Technologies) to obtain bone marrow. The cells were then passed through an 18 gauge needle to obtain a single cell suspension. The bone marrow mononuclear cell count (BM-MNC) was determined by counting cells using 3% acetic acid with methylene blue solution (Stem Cell Technologies, Vancouver, British Columbia). For LKS (lineage, cKit, Sca-1) staining to visualize hematopoietic progenitor cells (HPCs) and hematopoietic stem cells (HSCs), whole bone marrow was stained with biotinylated anti-lineage cocktail (anti-Mac1, Gr-1, CD3e, B220, and Ter119), APC-conjugated anti-cKit (clone 2B8), and PECy7-conjugated anti Sca-1 (clone D7) antibodies. Following primary antibody staining, the cells were washed and incubated in PE-conjugated streptavidin secondary antibody to visualize lineage-positive cells. All primary and secondary antibodies were obtained from BD Biosciences (San Jose, Calif.). The samples were acquired using an LSR Fortessa instrument (Becton Dickinson, Franklin Lakes, N.J.) and data was analyzed using FlowJo software (TreeStar, Ashland, Oreg.).
# To assess colony-forming ability, whole bone marrow isolated after flushing mouse femurs and tibiae was plated in 12-well plates at a density of 20,000 to 100,000 cells/well in methylcellulose medium (Methocult CF M3434, Stem Cell Technologies, Vancouver, British Columbia) containing recombinant murine IL-3, recombinant murine IL-6, and recombinant human erythropoietin. Cells from all samples were plated in triplicates and incubated at 37° C. in 5% CO2 for 7 days at which time hematopoietic colonies formed (colony-forming units in culture, CFU-Cs) were scored. […]
# [3] = system: HuCD34+ humanized NSG mice, 4 Gy to 4.5 Gy total body irradiation; experiment: Peripheral blood CBC at euthanasia in irradiated humanized mice given amifostine; settings: TBI + Amifostine
# Procedure: Blood collection for CBCs (100 μL) was performed by retro-orbital bleeding after anesthesia in EDTA-coated tubes (BD Biosciences, San Jose, Calif.). CBCs were recorded with a Hemavet 950 FS hematology analyzer (Drew Scientific, Dallas, Tex.).
# HuCD34^+ “humanized” NSG mice were obtained from Jackson Labs, Bar Harbor, Me. These mice were generated by irradiating each mouse at 1.4 Gy to deplete their bone marrow and injecting each mouse with CD34^+ human HSC. Each mouse was tested for engraftment of human CD45^+ cells and murine CD45^+ cells at 12 weeks following transplantation. Prior to the experiments described herein, the presence of human CD45^+ cells was confirmed in the peripheral blood and bone marrow from untreated control mice using an anti-human CD45 FITC antibody.
# The HuCD34^+ mice were treated with saline or amifostine (200 mg/kg of body weight 45 min-1 hr before radiation exposure) and were subsequently treated with 4 Gy to 4.5 Gy of total body irradiation, or were left untreated. Following these treatments, total bone cellularity and the levels of serum miRNAs were determined in the mice. Both CD45 staining of peripheral blood and engraftment analysis of bone marrow was performed when animals became moribund (between 9-14 days after total body radiation) and were sacrificed. The mice were irradiated at approximately 12 weeks after initial assessment of engraftment.
smiles,measurement,setting,value
NCCCNCCSP(=O)(O)O [amifostine],survival,lethally-irradiated mice; amifostine 200 mg/kg 45 minutes prior to 8.5 Gy-total body irradiation vs saline,prolonged survival
same,improvement in survival,"lethally-irradiated mice; amifostine 250 mg/kg intraperitoneally 24 hours prior to 8 Gy-total body irradiation vs saline, n=8 per group, p=0.0452",50%
same,serum miRNA signature response to treatment,[1],responded to amifostine treatment only in the context of lethal radiation
same,number of CFU-Cs,[2],increase
same,number of human CD45 positive cells in the bone marrow,[2],increase
same,total bone marrow cellularity,[2],increase
same,"HCT, CBC at euthanasia",[3]; group Avg,10.93%
same,"Hb, CBC at euthanasia",[3]; group Avg,4.27 g/dL
same,"PLT, CBC at euthanasia",[3]; group Avg,104.33 K/uL
same,"RBC, CBC at euthanasia",[3]; group Avg,2.37 M/uL
same,"WBC, CBC at euthanasia",[3]; group Avg,1.22 K/uL
same,"HCT, CBC at euthanasia","[3]; individual mice (# 8, 9, 13)",17.00% and 11.00% and 4.80%
same,"Hb, CBC at euthanasia","[3]; individual mice (# 8, 9, 13)",4.80 g/dL (2×) and 3.20 g/dL
same,"PLT, CBC at euthanasia","[3]; individual mice (# 8, 9, 13)",213 K/uL and 44 K/uL and 56 K/uL
same,"RBC, CBC at euthanasia","[3]; individual mice (# 8, 9, 13)",2.55 M/uL and 1.65 M/uL and 2.92 M/uL
same,"WBC, CBC at euthanasia","[3]; individual mice (# 8, 9, 13)",1.28 K/uL and 1.19 K/uL and 1.20 K/uL
